Reference: ChEMBL document CHEMBL1201862, “PubChem BioAssay data set” (2004)
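The compound was tested at five concentrations on cells cultured in 96-well plates, with a 48-hour exposure period. At the GI50, growth is halved.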 Calls of active or inactive are those of the source. No stated cut-off is given here; in the data, active = GI50 up to about 1.1 µM and inactive = higher.

Key:
Test in all cases: NCI anticancer screen, dose series, 48 h
[1] = test system: NCI-H226
[2] = test system: HCC 2998
[3] = test system: SK-MEL-5
[4] = test system: U-251
[5] = test system: SK-MEL-2
[6] = test system: MOLT-4
[7] = test system: TK-10
[8] = test system: UACC-257
[9] = test system: MCF7
[10] = test system: HT-29
[11] = test system: SR
[12] = test system: A549
[13] = test system: SK-OV-3
[14] = test system: RPMI-8226
[15] = test system: Hs-578T
[16] = test system: UACC-62
[17] = test system: NCI/ADR-RES
[18] = test system: HCT-15
[19] = test system: SW-620
[20] = test system: KM12
[21] = test system: COLO 205
[22] = test system: MDA-MB-231
[23] = test system: SF-268
[24] = test system: T47D
[25] = test system: NCI-H522
[26] = test system: SF-295
[27] = test system: NCI-H23
[28] = test system: MDA-MB-435
[29] = test system: ACHN
[30] = test system: PC-3
[31] = test system: OVCAR-3
[32] = test system: HOP-92
[33] = test system: CAKI-1
[34] = test system: MDA-N
[35] = test system: OVCAR-8
[36] = test system: SNB-75
[37] = test system: SK-MEL-28
[38] = test system: RXF 393
[39] = test system: EKVX
[40] = test system: A498
[41] = test system: SNB-19
[42] = test system: NCI-H460
[43] = test system: HOP-62
[44] = test system: LOX IMVI
[45] = test system: OVCAR-4
[46] = test system: SN12C
[47] = test system: IGROV-1
[48] = test system: CCRF-CEM
[49] = test system: M14
[50] = test system: 786-0
[51] = test system: Malme-3M
[52] = test system: UO-31
[53] = test system: SF-539
[54] = test system: K562
[55] = test system: BT-549
[56] = test system: HCT-116
[57] = test system: DU-145
[58] = test system: OVCAR-5

Q: Which results are given for `Cc1cn([C@H]2C[C@@H](N3C(=O)c4ccccc4C3=O)[C@@H](CO[Si](C)(C)C(C)(C)C)O2)c(=O)[nH]c1=O`?
A: GI50 [1]: 57.1 µM (inactive); GI50 [2]: > 100 µM (inactive); GI50 [3]: > 100 µM (inactive); GI50 [4]: 34.9 µM (inactive); GI50 [5]: 46.8 µM (inactive); GI50 [6]: 36.9 µM (inactive); GI50 [7]: > 100 µM (inactive); GI50 [8]: > 100 µM (inactive); GI50 [9]: 46 µM (inactive); GI50 [10]: 20.4 µM (inactive); GI50 [11]: 36.7 µM (inactive); GI50 [12]: 85.5 µM (inactive); GI50 [13]: 30.1 µM (inactive); GI50 [14]: > 100 µM (inactive); GI50 [15]: 21.2 µM (inactive); GI50 [16]: 23.8 µM (inactive); GI50 [17]: 43.3 µM (inactive); GI50 [18]: > 100 µM; GI50 [19]: > 100 µM (inactive); GI50 [20]: 91.6 µM (inactive); GI50 [21]: > 100 µM (inactive); GI50 [22]: 70.3 µM (inactive); GI50 [23]: 30.6 µM (inactive); GI50 [24]: > 100 µM (inactive); GI50 [25]: 50.4 µM (inactive); GI50 [26]: 37 µM (inactive); GI50 [27]: 31.6 µM (inactive); GI50 [28]: > 100 µM (inactive); GI50 [29]: 62.7 µM (inactive); GI50 [30]: > 100 µM (inactive); GI50 [31]: > 100 µM (inactive); GI50 [32]: 48.6 µM (inactive); GI50 [33]: 53.3 µM (inactive); GI50 [34]: > 100 µM (inactive); GI50 [35]: 32.5 µM (inactive); GI50 [36]: 24 µM (inactive); GI50 [37]: > 100 µM (inactive); GI50 [38]: 19.7 µM (inactive); GI50 [39]: 75.2 µM (inactive); GI50 [40]: > 100 µM (inactive); GI50 [41]: 29.3 µM (inactive); GI50 [42]: > 100 µM (inactive); GI50 [43]: 20.7 µM (inactive); GI50 [44]: > 100 µM (inactive); GI50 [45]: > 100 µM (inactive); GI50 [46]: > 100 µM (inactive); GI50 [47]: 55 µM (inactive); GI50 [48]: 36 µM (inactive); GI50 [49]: > 100 µM (inactive); GI50 [50]: 26.9 µM (inactive); GI50 [51]: 87.3 µM (inactive); GI50 [52]: 52.5 µM (inactive); GI50 [53]: 27.5 µM (inactive); GI50 [54]: 52.5 µM (inactive); GI50 [55]: > 100 µM (inactive); GI50 [56]: 49.2 µM (inactive); GI50 [57]: > 100 µM (inactive); GI50 [58]: > 100 µM (inactive)

Q: How did the GI50 [1] turn out when `CN(C)CCNC(=O)c1cccc2c(NCCN(C)C)c3ccccc3nc12` was run?
A: Its GI50 is 1.37 µM (inactive).

Q: And the GI50 [2]?
A: Its GI50 is 1.91 µM (inactive).

Q: And the GI50 [3]?
A: The GI50 was 3.48 µM (inactive).

Q: And the GI50 [4]?
A: Its GI50 is 2.69 µM (inactive).

Q: What about the GI50 [5] of the same compound?
A: Its GI50 is 5.28 µM (inactive).

Q: And the GI50 [6]?
A: Its GI50 is 1 µM (active).

Q: And the GI50 [7]?
A: Its GI50 is 3.24 µM (inactive).

Q: And the GI50 [8]?
A: Its GI50 is 5.14 µM (inactive).

Q: What about the GI50 [9] of the same compound?
A: Its GI50 is 2.36 µM (inactive).

Q: And the GI50 [10]?
A: Its GI50 is 1.61 µM (inactive).

Q: What about the GI50 [11] of the same compound?
A: Its GI50 is 0.982 µM (active).

Q: What about the GI50 [12] of the same compound?
A: Its GI50 is 1.91 µM (inactive).

Q: What about the GI50 [13] of the same compound?
A: The GI50 was 7.4 µM (inactive).

Q: And the GI50 [14]?
A: The GI50 was 2.41 µM (inactive).

Q: What about the GI50 [15] of the same compound?
A: The GI50 was 2.66 µM (inactive).

Q: And the GI50 [16]?
A: Its GI50 is 4.55 µM (inactive).

Q: What about the GI50 [17] of the same compound?
A: The GI50 was 7.78 µM (inactive).

Q: And the GI50 [18]?
A: The GI50 was 3.63 µM.

Q: What about the GI50 [19] of the same compound?
A: The GI50 was 2.33 µM (inactive).

Q: And the GI50 [20]?
A: The GI50 was 2.79 µM (inactive).

Q: And the GI50 [21]?
A: The GI50 was 1.92 µM (inactive).

Q: What about the GI50 [22] of the same compound?
A: Its GI50 is 2 µM (inactive).

Q: What about the GI50 [23] of the same compound?
A: The GI50 was 3.07 µM (inactive).

Q: What about the GI50 [24] of the same compound?
A: The GI50 was 14.6 µM (inactive).

Q: What about the GI50 [25] of the same compound?
A: The GI50 was 1.37 µM (inactive).

Q: What about the GI50 [26] of the same compound?
A: The GI50 was 4.93 µM (inactive).

Q: And the GI50 [27]?
A: Its GI50 is 2.33 µM (inactive).

Q: And the GI50 [28]?
A: Its GI50 is 2.94 µM (inactive).

Q: What about the GI50 [29] of the same compound?
A: The GI50 was 1.76 µM (inactive).

Q: What about the GI50 [30] of the same compound?
A: Its GI50 is 2.42 µM (inactive).

Q: What about the GI50 [31] of the same compound?
A: The GI50 was 2.39 µM (inactive).

Q: And the GI50 [32]?
A: Its GI50 is 2.16 µM (inactive).

Q: And the GI50 [33]?
A: The GI50 was 2.69 µM (inactive).

Q: What about the GI50 [34] of the same compound?
A: Its GI50 is 3.15 µM (inactive).

Q: What about the GI50 [35] of the same compound?
A: Its GI50 is 3.19 µM (inactive).

Q: And the GI50 [36]?
A: Its GI50 is 5.06 µM (inactive).

Q: What about the GI50 [37] of the same compound?
A: Its GI50 is 13.7 µM (inactive).

Q: And the GI50 [38]?
A: The GI50 was 3.6 µM (inactive).

Q: And the GI50 [39]?
A: The GI50 was 2.99 µM (inactive).

Q: And the GI50 [40]?
A: Its GI50 is 1.94 µM (inactive).

Q: And the GI50 [41]?
A: The GI50 was 3.24 µM (inactive).

Q: What about the GI50 [42] of the same compound?
A: The GI50 was 1.37 µM (inactive).

Q: And the GI50 [43]?
A: Its GI50 is 3.19 µM (inactive).

Q: What about the GI50 [44] of the same compound?
A: The GI50 was 1.55 µM (inactive).

Q: And the GI50 [45]?
A: Its GI50 is 2.49 µM (inactive).

Q: What about the GI50 [46] of the same compound?
A: Its GI50 is 1.73 µM (inactive).

Q: And the GI50 [47]?
A: Its GI50 is 2.68 µM (inactive).

Q: And the GI50 [48]?
A: The GI50 was 2 µM (inactive).

Q: What about the GI50 [49] of the same compound?
A: The GI50 was 7.1 µM (inactive).

Q: What about the GI50 [50] of the same compound?
A: Its GI50 is 1.7 µM (inactive).

Q: And the GI50 [51]?
A: Its GI50 is 3.85 µM (inactive).

Q: And the GI50 [52]?
A: Its GI50 is 2.92 µM (inactive).

Q: What about the GI50 [53] of the same compound?
A: Its GI50 is 3.05 µM (inactive).

Q: What about the GI50 [54] of the same compound?
A: Its GI50 is 1.73 µM (inactive).

Q: And the GI50 [55]?
A: Its GI50 is 7.59 µM (inactive).

Q: What about the GI50 [56] of the same compound?
A: The GI50 was 1.48 µM (inactive).

Q: What about the GI50 [57] of the same compound?
A: Its GI50 is 3.82 µM (inactive).

Q: What about the GI50 [58] of the same compound?
A: The GI50 was 2.89 µM (inactive).
